Experimental data from patent US7919133B2, “Substituted cyclopropanecarboxylic acid (3-methyl-cyclohexyl)amide as flavoring substance” (SYMRISE GmbH & Co. KG, priority 2007, dated 2011).

How the values were obtained:
[1] = among substituted benzoic amides of WO 2006/099762; cited from earlier work
[2] = Tasting in the applicant's own investigations; assay type: in vivo; conditions: for Umami-properties: in vivo
[3] = Panel tasting in 0.5% American beef extract / beef broth as base (FIG. 1, scores 0 to 6); assay type: in vivo
Description: In spider diagram attached as FIG. 1, American beef broth is exemplarily compared as a base, with firstly such a base with an addition of 5 ppm of mixture of cyclopropanecarboxylic acid-((1S,2S,5R)-2-isopropyl-5-methyl-cyclohexyl)-amide (11) and Cyclopropanecarboxylic acid-((1R,2R,5S)-2-isopropyl-5-methyl-cyclohexyl)-amide (12) (mixing ratio of 1:1) and secondly with such a base with an addition of 0.05 wt.-% of MSG.
With the aid of tasting by a panel of trained subjects, the taste of a 0.5% American beef extract as base (light grey line) was compared with the taste of firstly, such a base, to which 5 ppm of mixture consisting of cyclopropanecarboxylic acid-((1S,2S,5R)-2-isopropyl-5-methyl-cyclohexyl)amide (11) and cyclopropanecarboxylic acid-((1R,2R,5S)-2-isopropyl-5-methyl-cyclohexyl)amide (12) was added (solid line), and secondly such a base, to which 0.05 wt.-% of MSG was added (broken line).
The subjects rated the strength of the stated trend of taste by ranking of scores on a scale from 0 (no corresponding taste) to 6 (very strong corresponding taste). The average values of respective scores are illustrated.

[4] = as given in US 2004/0202760 and US 2004/0202619; cited from earlier work

## COC(=O)c1ccc(C(=O)NC2CC(C)CCC2C(C)C)cc1 (centres unmarked)
[1]
  cooling effect: strongest ascertained cooling effect

## CC(C)[C@@H]1CC[C@@H](C)C[C@@H]1NC(=O)C1CC1 [(11), Cyclopropanecarboxylic acid-((1S,2S,5R)-2-isopropyl-5-methyl-cyclohexyl)amide]
[2]
  Umami-properties: interesting and strong Umami-properties

## CC(C)[C@H]1CC[C@H](C)C[C@H]1NC(=O)C1CC1 [(12), Cyclopropanecarboxylic acid-((1R,2R,5S)-2-isopropyl-5-methyl-cyclohexyl)amide]
[2]
  Umami-properties: interesting and strong Umami-properties

## O=C(NC1CCCCC1)C1CC1 [Cyclopropanecarboxylic acid cyclohexyl amide]
[2]; tasting in own investigations
  taste rating: taste-neutral
[3]
  creating or enhancing of an Umami taste impression: no creating or enhancing of an Umami taste impression could be verified

## CC/C=C\CC/C=C/C(=O)NC1CC1 [N-cyclopropyl-E2,Z6-nonadiene amide]
[4]
  sensory impression: effect similar to MSG

## CCCCC/C=C\CC/C=C/C(=O)NCC [N-ethyl-E2,Z6-dodecadiene amide]
[4]
  sensory impression: effect similar to MSG

## CC/C=C\CC/C=C/C(=O)NCC [N-ethyl-E2,Z6-nonadiene amide]
[4]
  sensory impression: effect similar to MSG
